This note sets out measurements from patent US20130040933A1, “AZAINDOLES AS JANUS KINASE INHIBITORS” (priority 2010, published 2013).

The target of the experiment is T1, rhJAK3 (Homo sapiens, UniProt P52333).
T1 construct: recombinant purified GST-tagged catalytic domain for each enzyme; purchased Invitrogen PV3855
Briefly: JAK Biochemical HTRF Assay (JAK3). The conditions noted are these: recombinant purified GST-tagged catalytic domain, HTRF format, [ATP] 1.7 μM.

Like-named read-outs stand apart in the source and are kept apart here.

T1 sequence (P52333 822-1111 limits assumed): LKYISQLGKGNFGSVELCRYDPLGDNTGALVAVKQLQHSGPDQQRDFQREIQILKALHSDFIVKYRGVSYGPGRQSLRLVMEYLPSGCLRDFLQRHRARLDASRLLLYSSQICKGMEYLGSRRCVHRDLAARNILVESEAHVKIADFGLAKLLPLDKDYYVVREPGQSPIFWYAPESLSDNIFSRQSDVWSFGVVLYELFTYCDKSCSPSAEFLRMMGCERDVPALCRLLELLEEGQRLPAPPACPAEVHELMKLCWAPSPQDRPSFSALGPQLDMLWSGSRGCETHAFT

On to `Cc1cnc2[nH]cc(-c3cncc(N[C@H](C)C(=O)NCC(F)(F)F)n3)c2c1` [Example 15, N2-[6-(5-methyl-1H-pyrrolo[2,3-b]pyridin-3-yl)pyrazin-2-yl]-N-(2,2,2-trifluoroethyl)-D-alaninamide], for which the IC50 (usually the point on the concentration scale where inhibition reaches its midpoint) (read-out: rhJAK3 IC50) lay in the range of 1 to 10 nM.

As for `C[C@@H](Nc1cncc(-c2c[nH]c3ncc(-c4cccc(N5CCCC5)c4)cc23)n1)C(=O)NCC(F)(F)F` [Example 15-1, N^2-{6-[5-(3-pyrrolidin-1-ylphenyl)-1H-pyrrolo[2,3-b]pyridin-3-yl]pyrazin-2-yl}-N-(2,2,2-trifluoroethyl)-D-alaninamide], under “read-out: JAK3 IC50”, the IC50 was no more than 1 nM.

Consider `C[C@@H](Nc1cncc(-c2c[nH]c3ncc(-c4ccc(CC#N)nc4)cc23)n1)C(=O)NCC(F)(F)F` [Example 15-2, N^2-(6-{5-[6-(cyanomethyl)pyridin-3-yl]-1H-pyrrolo[2,3-b]pyridin-3-yl}-pyrazin-2-yl)-N-(2,2,2-trifluoroethyl)-D-alaninamide], for which the IC50 (read-out: JAK3 IC50) is no more than 1 nM.

With `C[C@@H](Nc1cncc(-c2c[nH]c3ncc(-c4ccc(C(O)C(F)(F)F)cc4)cc23)n1)C(=O)NCC(F)(F)F` (stereo partly drawn) [Example 15-3, N-(2,2,2-trifluoroethyl)-N^2-(6-{5-[4-(2,2,2-trifluoro-1-hydroxyethyl)phenyl]-1H-pyrrolo[2,3-b]pyridin-3-yl}pyrazin-2-yl)-D-alaninamide], the IC50 (read-out: JAK3 IC50) is no more than 1 nM.

As for `C[C@@H](Nc1cncc(-c2c[nH]c3ncc(/C=C/CN(C)C)cc23)n1)C(=O)NCC(F)(F)F` [Example 15-4, N^2-(6-{5-[(1E)-3-(dimethylamino)prop-1-en-1-yl]-1H-pyrrolo[2,3-b]pyridin-3-yl}pyrazin-2-yl)-N-(2,2,2-trifluoro-ethyl)-D-alaninamide], where the note is “read-out: JAK3 IC50”, the IC50 is 1 to 10 nM.

Take `C[C@@H](Nc1cncc(-c2c[nH]c3ncc(-c4ccnn4C)cc23)n1)C(=O)NCC(F)(F)F` [Example 15-5, N^2-{6-[5-(1-methyl-1H-pyrazol-5-yl)-1H-pyrrolo[2,3-b]pyridin-3-yl]pyrazin-2-yl}-N-(2,2,2-trifluoroethyl)-D-alaninamide]: the IC50 (read-out: JAK3 IC50) was 1 to 10 nM.

As to `C[C@@H](Nc1cncc(-c2c[nH]c3ncc(-c4cnc(N)nc4)cc23)n1)C(=O)NCC(F)(F)F` [Example 15-6, N^2-{6-[5-(2-aminopyrimidin-5-yl)-1H-pyrrolo[2,3-b]pyridin-3-yl]pyrazin-2-yl}-N-(2,2,2-trifluoroethyl)-D-alaninamide], the IC50 (read-out: JAK3 IC50) is no more than 1 nM.

As for `COCC#Cc1cnc2[nH]cc(-c3cncc(N[C@H](C)C(=O)NCC(F)(F)F)n3)c2c1` [Example 15-7, N^2-{6-[5-(3-methoxyprop-1-yn-1-yl)-1H-pyrrolo[2,3-b]pyridin-3-yl]pyrazin-2-yl}-N-(2,2,2-trifluoroethyl)-D-alaninamide], for the setting “read-out: JAK3 IC50”, the IC50 was no more than 1 nM.

Turning to `C[C@@H](Nc1cncc(-c2c[nH]c3ncc(CN4CCC(F)C4)cc23)n1)C(=O)NCC(F)(F)F` (stereo partly drawn) [Example 15-8, N^2-(6-{5-[(3-fluoropyrrolidin-1-yl)-methyl]-1H-pyrrolo[2,3-b]pyridin-3-yl}-pyrazin-2-yl)-N-(2,2,2-trifluoroethyl)-D-alaninamide], the IC50 (read-out: JAK3 IC50) lay within 10 to 100 nM.

Turning to `C[C@@H](Nc1cncc(-c2c[nH]c3ncc(-c4cnn5c4CCC5)cc23)n1)C(=O)NCC(F)(F)F` [Example 15-9, N^2-{6-[5-(5,6-dihydro-4H-pyrrolo[1,2-b]pyrazol-3-yl)-1H-pyrrolo[2,3-b]-pyridin-3-yl]pyrazin-2-yl}-N-(2,2,2-trifluoroethyl)-D-alaninamide], where the note is “read-out: JAK3 IC50”, the IC50 is no more than 1 nM.

Take `C[C@@H](Nc1cncc(-c2c[nH]c3ncc(-c4cccc(N5CCOCC5)c4)cc23)n1)C(=O)NCC(F)(F)F` [Example 15-10, N^2-{6-[5-(3-morpholin-4-ylphenyl)-1H-pyrrolo[2,3-b]pyridin-3-yl]pyrazin-2-yl}-N-(2,2,2-trifluoroethyl)-D-alaninamide]: the IC50 (read-out: JAK3 IC50) is no more than 1 nM.
